Converted amounts (≈) assume the structure as drawn. Read-outs that look alike come from different tables or passages of the source.
Tests used:
[1] = system: Hep3B (HCC); details: cited from earlier work
[2] = system: HepG2 (HCC) cells; experiment: MTS cytotoxicity assay, HepG2; format: cell-based; details: Homo sapiens, concentrations 1, 10, 50, 100, 300 µM, mean ± SD
Description: (§1) Several tumor cell lines were used in this study including HeLa (cervical adenocarcinoma) HepG2, and Hep3B (HCC); B16F1 (melanoma); MCF-7 (breast carcinoma); Colo205 (colon adenocarcinoma); and CaCo-2 (colorectal adenocarcinoma), in addition to two normal cell lines LX-2 (human hepatic stellate) and Hek293t (kidney cell lines). All evaluated cells were incubated in RPMI-1640 medium and supplemented by 1% of Penicillin/Streptomycin antibiotics, 1% of l-glutamine, and 10% fetal bovine serum. The selected cells were cultivated at 37 °C in a wet environment containing 5% CO2.. In a 96-well plate, the seeding of cells was conducted as 2.5 × 10^4 cells per well. After 72 hr, the cells were confluent, the media was refreshed, and after that, all cells were incubated by several compounds’ concentrations (1, 10, 50, 100, and 300 µM). The viability of cells was investigated by the Cell Tilter 96® Aqueous One Solution Cell Proliferation (MTS) assay regarding the manufacturer’s instructions (Promega Corporation, Madison, WI). In the last step, 20 μL of MTS per 100 μL of media were added to each well and kept at 37 °C; after that at 490 nm wavelength the absorbance was collected.

[3] = system: Hep3B (HCC) cells; experiment: MTS cytotoxicity assay, Hep3B; format: cell-based; details: Homo sapiens, concentrations 1, 10, 50, 100, 300 µM, mean ± SD
Description: as §1

[4] = system: B16F1 (melanoma) cells; experiment: MTS cytotoxicity assay, B16F1; format: cell-based; details: Mus musculus, B16-F1, concentrations 1, 10, 50, 100, 300 µM, mean ± SD
Description: as §1

[5] = system: CaCo-2 (colorectal adenocarcinoma) cells; experiment: MTS cytotoxicity assay, CaCo-2; format: cell-based; details: Homo sapiens, concentrations 1, 10, 50, 100, 300 µM, mean ± SD
Description: as §1

[6] = system: LX-2 (human hepatic stellate) cells; experiment: MTS cytotoxicity assay, normal cell line LX-2; format: cell-based; details: concentrations 1, 10, 50, 100, 300 µM
Description: as §1

[7] = system: Colo205 (colon adenocarcinoma) cells; experiment: MTS cytotoxicity assay, Colo205; format: cell-based; details: Homo sapiens, COLO 205, concentrations 1, 10, 50, 100, 300 µM, mean ± SD
Description: as §1

[8] = system: Hek293t (kidney cell lines); experiment: MTS cytotoxicity assay, normal cell line Hek293t; format: cell-based; details: Homo sapiens, HEK-293T, concentrations 1, 10, 50, 100, 300 µM, mean ± SD
Description: as §1

[9] = system: HeLa (cervical adenocarcinoma) cells; experiment: MTS cytotoxicity assay, HeLa; format: cell-based; details: Homo sapiens, concentrations 1, 10, 50, 100, 300 µM, mean ± SD
Description: as §1

[10] = system: MCF-7 (breast carcinoma) cells; experiment: MTS cytotoxicity assay, MCF-7; format: cell-based; details: Homo sapiens, MCF7, concentrations 1, 10, 50, 100, 300 µM, mean ± SD
Description: as §1

[11] = system: Hep3B liver cancer cells; experiment: Hepatocellular carcinoma spheroids formation test (3D); format: cell-based; details: 24 h; for Effect on Hep3B spheroid formation: 17 μg/mL, compared to non-treated cells
Description: Hep3B liver cancer cells (4 × 10^3 per well) were seeded in round-bottomed supra-low attachment well plates over 24 h in the presence of 2b or 2e (17 μg/mL). Doxorubicin, a chemotherapeutic medication, was used as a positive control (100 μg/mL). Images of the formed spheroids/clusters were captured at 0 h and 24 h using an inverted microscope with a final magnification of 100×. The photographs of the spheroids were assessed and quantified using ImageJ software.

[12] = cited from earlier work
[13] = cited from earlier work; remark: listed apart in the source
[14] = cited from earlier work; remark: listed apart in the source
[15] = system: Hep3B (HCC); design: method as in PMID 33763478; details: cited from earlier work

Row | melting point | SMILES | IC50 against Hep3B ([1]; earlier series with two halogens at ortho positions) | IC50 [2] | IC50 [3] | IC50 [4] | IC50 [5] | IC50 [6] | IC50 [7] | IC50 [8] | IC50 [9] | IC50 [10] | IC50 against Hep3B ([1]; earlier fluorophenyl-isoxazole series, para halogen) | Effect on Hep3B spheroid formation [11] | Water solubility [12] | Plasma half-life [13] | Chemical stability [14] | Cell cycle effect [15] | IC50 against Hep3B ([1]; earlier isoxazole-carboxamide series, ortho halogen) | Effect on Hep3B spheroid formation (positive control) ([11]; 100 μg/mL)
1 | – | Cc1onc(-c2c(F)cccc2Cl)c1C(=O)Nc1ccc(C(C)(C)C)cc1 [St.3, N-(4-(tert-butyl)phenyl)-3-(2-chloro-6-fluorophenyl)-5-methylisoxazole-4-carboxamide] | 2.77 µg/mL (≈ 7.16 µM) | – | – | – | – | – | – | – | – | – | – | – | – | – | – | – | – | –
2 | 203.5 to 205 °C | O=C(Nc1ccccc1)c1ccc(-c2ccc(F)cc2)s1 [2a, 5-(4-fluorophenyl)-N-phenylthiophene-2-carboxamide] | – | 283.7 ± 1.79 µM | 28 ± 2.05 µM | > 300 µM | > 300 µM | > 300 µM | > 300 µM | > 300 µM | > 300 µM | > 300 µM | – | – | – | – | – | – | – | –
3 | 156.5 to 157 °C | COc1cc(NC(=O)c2ccc(-c3ccc(F)cc3)s2)cc(OC)c1 [2d, N-(3,5-dimethoxyphenyl)-5-(4-fluorophenyl) thiophene-2-carboxamide] | – | > 300 µM | 8.85 ± 1.45 µM | > 300 µM | > 300 µM | > 300 µM | > 300 µM | > 300 µM | > 300 µM | > 300 µM | – | – | – | – | – | – | – | –
4 | 218.5 to 220.4 °C | CC(C)(C)c1ccc(NC(=O)c2ccc(-c3ccc(F)cc3)s2)cc1 [2c, N-(4-(tert-butyl)phenyl)-5-(4-fluorophenyl) thiophene-2-carboxamide] | – | > 300 µM | 189 ± 2.78 µM | > 300 µM | > 300 µM | > 300 µM | > 300 µM | > 300 µM | > 300 µM | > 300 µM | – | – | – | – | – | – | – | –
5 | – | COc1ccc(NC(=O)c2c(-c3ccc(F)cc3)noc2C)cc1OC [St.2, N-(3,4-dimethoxyphenyl)-3-(4-fluorophenyl)-5-methylisoxazole-4-carboxamide] | – | – | – | – | – | – | – | – | – | – | 7.66 µg/mL (≈ 21.5 µM) | – | – | – | – | – | – | –
6 | 190.8 to 192 °C | COc1cc(NC(=O)c2ccc(-c3ccc(F)cc3)s2)cc(OC)c1OC [2b, 5-(4-fluorophenyl)-N-(3,4,5-trimethoxyphenyl) thiophene-2-carboxamide] | – | > 300 µM | 5.46 ± 1.47 µM | > 300 µM | > 300 µM | > 300 µM | 35.1 ± 2.05 µM | 278.1 ± 2.75 µM | 205 µM | 29.7 ± 2.74 µM | – | significantly smaller spheroid | – | – | – | – | – | –
7 | 185.5 to 187.5 °C | COc1cc(NC(=O)c2ccc(-c3ccc(F)cc3)s2)c(OC)cc1Cl [2e, N-(4-chloro-2,5-dimethoxyphenyl)-5-(4-flurophenyl)thiophene-2-carboxamide] | – | 18.2 ± 0.78 µM | 12.6 ± 2.57 µM | 112 ± 1.99 µM | 82.9 ± 2.45 µM | > 300 µM | 74.8 ± 1.45 µM | 105 ± 1.08 µM | 39.6 ± 1.88 µM | 42.5 ± 2.59 µM | – | inhibited spheroid formation | – | – | – | – | – | –
8 | – | COc1ccc(/C=C\c2cc(OC)c(OC)c(OC)c2)cc1O [CA-4, Combretastatin A-4] | – | – | – | – | – | – | – | – | – | – | – | – | poor | short | chemical instability | – | – | –
9 | – | COc1ccc(OC)c(NC(=O)c2c(-c3ccccc3Cl)noc2C)c1 [St.1, 3-(2-chlorophenyl)-N-(2,5-dimethoxyphenyl)-5-methylisoxazole-4-carboxamide] | – | – | – | – | – | – | – | – | – | – | – | – | – | – | – | cell cycle arrest in the G2/M phase | 23 µg/mL (≈ 61.7 µM) | –
10 | – | COc1cccc2c1C(=O)c1c(O)c3c(c(O)c1C2=O)C[C@@](O)(C(=O)CO)C[C@@H]3O[C@H]1C[C@H](N)[C@H](O)[C@H](C)O1 [DOX, Doxorubicin, reference compound] | – | 1.6 ± 0.67 µM | 1.21 ± 1 µM | < 1 µM | < 1 µM | < 1 µM | < 1 µM | 1.24 ± 0.87 µM | 1.55 ± 1.35 µM | < 1 µM | – | – | – | – | – | – | – | no recognized sphere formation
